{
  "source": "patent US7271144B2",
  "about": "“Therapeutic fibrin-derived peptides and uses thereof” (Fibrex Medical Research & Development GmbH, priority 2000, dated 2007)",
  "key": {"monocytes": {"system": "monocytes", "test": "Adhesion and transmigration of pure monocytes on HUVEC on a collagen matrix", "format": "cell-based, human", "experimental": "(§1) Endothelial cells from human umbilical veins (HUVEC) were marked with a red fluorescent dye (Cell Tracker Orange, 1 μl/ml, Molecular Probes, Eugene, Oreg.) and were dispersed on a collagen matrix (Collaborative Biomedical Products, Bedford, Mass.). Upon confluence of the endothelial cells, peripheral mononuclear blood cells (PBMC) (10^5 cells per 25 mm^2) marked with a green fluorescent dye (Cell Tracker Green, 1 μl/ml, Molecular Probes of Messrs. Eugene, Origon) were superimposed. Thereafter, the cells were incubated at 37° C. for twelve hours.\n(§2) Adhering cells that had transmigrated into the gel were photographed with a laser-scan microscope, were converted into pixels and were evaluated by means of an “NIH image” according to Gröger et al. (J. Immunol. Method 1999; 222: 101-109).\n(§3) It was feasible to determine the number of adherent cells per 0.1 mm^2 such as mentioned under “adhesion”. It was feasible to determine the number of migrated cells per 0.04 mm^3 such as mentioned under “migration”. The mean value of three times three trials was evaluated together with the standard deviation.\nThe proceedings were in accordance with Example 11, except for pure monocytes being used instead of lymphocytes. 100 μg of NDSK-uPA or 100 μg of NDSK-II, respectively, was added to peptide Aalpha, randomized Aalpha, Bbeta or randomized Bbeta.\nThe proceedings were in accordance with Example 12, with pure monocytes being used. […] of NDSK-uPA or 100 μg of NDSK-II, respectively, was added to the short peptide salts Aalpha Gly Pro Arg (Pro)—NH2 acetate (Aalpha derivative) or Bbeta Gly His Arg Pro-OH acetate (Bbeta derivative)."}, "[1]": {"system": "peripheral mononuclear blood cells (PBMC)", "test": "Adhesion and transmigration of PBMC on HUVEC on a collagen matrix", "format": "cell-based, human", "settings": "for adhesion / migration: Example 9, PBMC", "experimental": "as §1, §2, §3\n100 μg of NDSK-II and Bbeta or Bbeta randomized were added to the collagen matrix according to Example 8 comprising the suspension of PBMC, and further proceedings were in accordance with Example 8.\n100 μg of NDSK-II and Aalpha or Aalpha randomized were added to the collagen matrix according to Example 8 comprising the suspension of PBMC, and further proceedings were in accordance with Example 8."}, "lymphocytes": {"system": "lymphocytes", "test": "Adhesion and transmigration of pure lymphocytes on HUVEC on a collagen matrix", "format": "cell-based, human", "settings": "Example 11; for adhesion / migration: lymphocytes", "experimental": "as §1, §2, §3\nSince PBMC substantially consists of a mixture of lymphocytes and monocytes, pure lymphocytes instead of PBMC (as in Examples 8-10) were used in Example 11.\n100 μg of NDSK-uPA or 100 μg of NDSK-II, respectively, and Aalpha or Bbeta, respectively, were added to the collagen matrix according to Example 8 comprising endothelial cells and lymphocytes.\nThe proceedings were in accordance with Example 11, with pure lymphocytes being used. 100 μg of NDSK-uPA or 100 μg of NDSK-II, respectively, was added to the short peptide salts derived from Aalpha Gly Pro Arg (Pro)—NH2 acetate (Aalpha derivative) or derived from Bbeta Gly His Arg Pro-OH acetate (Bbeta derivative)."}, "[2]": {"system": "human skin transplanted onto the backs of SCID mice, human lymphocytes injected", "test": "HU-SCID mouse model: inflammatory sites in transplanted human skin", "format": "in vivo", "experimental": "Human skin was transplanted onto the backs of SCID mice, and two weeks later human lymphocytes were injected into the peritoneum. The proceedings were according to Petzelbauer et al. (J. Invest. Dermatol. 1996, 107; 576-581). Then, fifteen mice thus prepared were injected in their tail veins with the following:\nTwenty-four hours later, the human skin was removed and the number of inflammatory sites, expressed in cells per 0.3 mm^2, was evaluated and the mean value was determined with a standard deviation."}, "cardiac muscle": {"system": "cardiac muscle", "test": "Rat cardiac artery occlusion / reperfusion, infarct planimetry"}, "[3]": {"settings": "Example 12, 100 μg of peptide + 100 μg NDSK-II"}, "[4]": {"settings": "Example 12, 100 μg of peptide + 100 μg NDSK-uPA"}, "[5]": {"settings": "Example 12, substance alone, 100 μg"}, "[6]": {"settings": "10 μg of peptide + 100 μg NDSK-II"}, "[7]": {"settings": "100 μg of peptide + 100 μg NDSK-II"}, "[8]": {"settings": "1000 μg of peptide + 100 μg NDSK-II"}, "[9]": {"settings": "100 μg of peptide + 100 μg NDSK-uPA"}, "[10]": {"settings": "rat, 800 μg/kg intravenously at reperfusion after 25 min occlusion, 2 hours"}},
  "note": "Where no end group is shown, it is not given here.",
  "data": [
    {"sequence": "GHRPLDKKREEAPSLRPAPPPISGGGYR [amino acids 1 to 28 of the beta chain of the fibrin]", "values": [
      {"measurement": "adhesion", "setting": "monocytes; [3]", "result": "70 +/− 7 cells per 0.1 mm^2"},
      {"measurement": "migration", "setting": "monocytes; [3]", "result": "7 +/− 5 cells per 0.04 mm^3"},
      {"measurement": "adhesion", "setting": "monocytes; [4]", "result": "61 +/− 11 cells per 0.1 mm^2"},
      {"measurement": "migration", "setting": "monocytes; [4]", "result": "8 +/− 3 cells per 0.04 mm^3"},
      {"measurement": "adhesion", "setting": "monocytes; [5]", "result": "59 +/− 7 cells per 0.1 mm^2"},
      {"measurement": "migration", "setting": "monocytes; [5]", "result": "5 +/− 1 cells per 0.04 mm^3"},
      {"measurement": "adhesion", "setting": "[1]; [6]", "result": "63 +/− 33 cells per 0.1 mm^2"},
      {"measurement": "migration", "setting": "[1]; [6]", "result": "7 +/− 4 cells per 0.04 mm^3"},
      {"measurement": "adhesion", "setting": "[1]; [7]", "result": "47 +/− 34 cells per 0.1 mm^2"},
      {"measurement": "migration", "setting": "[1]; [7]", "result": "5 +/− 4 cells per 0.04 mm^3"},
      {"measurement": "adhesion", "setting": "[1]; [8]", "result": "52 +/− 27 cells per 0.1 mm^2"},
      {"measurement": "migration", "setting": "[1]; [8]", "result": "10 +/− 6 cells per 0.04 mm^3"},
      {"measurement": "conclusion: blocking of NDSK-II-induced PBMC adhesion/migration", "setting": "[1]; Examples 9 and 10, with 100 μg NDSK-II", "result": "blocks inflammations"},
      {"measurement": "conclusion: blocking of lymphocytic adhesion and migration induced by NDSK-II and NDSK-uPA", "setting": "lymphocytes", "result": "completely blocks"},
      {"measurement": "adhesion", "setting": "lymphocytes; [7]", "result": "74 +/− 8 cells per 0.1 mm^2"},
      {"measurement": "migration", "setting": "lymphocytes; [7]", "result": "17 +/− 3 cells per 0.04 mm^3"},
      {"measurement": "adhesion", "setting": "lymphocytes; [9]", "result": "74 +/− 8 cells per 0.1 mm^2"},
      {"measurement": "migration", "setting": "lymphocytes; [9]", "result": "19 +/− 2 cells per 0.04 mm^3"},
      {"measurement": "adhesion", "setting": "lymphocytes; substance alone, 100 μg", "result": "58 +/− 18 cells per 0.1 mm^2"},
      {"measurement": "migration", "setting": "lymphocytes; substance alone, 100 μg", "result": "14 +/− 1 cells per 0.04 mm^3"},
      {"measurement": "number of inflammatory sites", "setting": "[2]; Example 3, 100 μg alone, tail vein, 24 hours, mean +/- SD", "result": "6+/−1.1 cells per 0.3 mm^2"},
      {"measurement": "inflammatory sites", "setting": "[2]; Examples 4-7, 100 μg of peptide + 100 μg of human NDSK-II, 24 hours", "result": "14+/−2 per 0.3 mm^2"},
      {"measurement": "conclusion: blocking of lymphocytic inflammation", "setting": "[2]; Examples 4 to 7, with 100 μg NDSK-II", "result": "blocks lymphocytic inflammation"},
      {"measurement": "cardiac muscle threatened because of the vascular occlusion", "setting": "cardiac muscle; [10]", "result": 60, "unit": "%"},
      {"measurement": "endangered tissue that was dead", "setting": "cardiac muscle; [10]", "result": 29, "unit": "%"},
      {"measurement": "reduction of dead tissue", "setting": "cardiac muscle; versus reference rats, p<0.05", "result": 37, "unit": "%"}
    ]}
  ]
}
